Laboratory results reported in patent US10106553B2, “Substituted benzothiophenyl derivatives as GPR40 agonists for the treatment of type II diabetes” (Janssen Pharmaceutica NV, priority 2016, dated 2018).

Columns and labels:
Male SD rats = assay: Oral Glucose Tolerance Test; format: in vivo, rat; conditions: 10 mg/kg po 30-40 min prior to oGTT (glucose 2 g/kg po), blood glucose AUC t=0 to t=120 min
Method: Male SD rats (200-250 g) were housed 2 per cage in a temperature-controlled room with a 12-hour light/dark cycle. They were allowed ad libitum access to water and fed with normal rodent chow. The night before the oral glucose tolerance test (oGTT), the rats were transferred to clean cages and fasted overnight. On the morning of the oGTT, the rats were weighed and randomized into groups based on fasted blood glucose and body weight. Rats were dosed with vehicle (0.5% methocel) or compounds (10 mg/kg, po) thirty to forty min prior to the oGTT (glucose, 2 g/kg, po). Blood was collected from the tail vein at 0, 10, 30, 60 and 120 minutes after glucose challenge to measure blood glucose; plasma was used to determine insulin levels. The area under the curve for blood glucose excursion was calculated from t=0 to t=120 minutes. Percent lowering of glucose was calculated from the AUC data with respect to the vehicle-treated group.

human GPR40 = human GPR40 (Homo sapiens (Human), UniProt O14842); assay: GPR40 Calcium Flux Assay; format: cell-based; conditions: transfected HEK293 cells stably expressing human GPR40; Ca2+ mobilization; mean data; read-out: hGPR40 Ca^2+ Assay EC50;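 also: calcium flux followed with the Fluo-8 fluorescent dye, intensity read each second over 8 min as compounds were added to the cells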
Sequence of human GPR40 (O14842 whole entry): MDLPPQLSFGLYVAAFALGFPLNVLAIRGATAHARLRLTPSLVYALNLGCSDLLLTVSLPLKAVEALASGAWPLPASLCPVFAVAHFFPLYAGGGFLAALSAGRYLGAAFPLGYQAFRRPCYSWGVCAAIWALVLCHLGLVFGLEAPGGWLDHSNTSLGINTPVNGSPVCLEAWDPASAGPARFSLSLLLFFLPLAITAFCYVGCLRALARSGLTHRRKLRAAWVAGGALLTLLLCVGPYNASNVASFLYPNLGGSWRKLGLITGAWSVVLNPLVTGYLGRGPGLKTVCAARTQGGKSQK

SMILES | Percent Lowering of Glucose (AUC compound vs. AUC Vehicle) (Male SD rats) | EC50 (human GPR40)
CC#C[C@@H](Cc1nnn[nH]1)c1ccc(OCc2ccc3scc(-c4ccccc4C)c3c2)cc1 [Cpd 1, (2S)-5-(2-(4-((3-(2-Methylphenyl)benzo[b]thiophen-5-yl)methoxy)phenyl)pent-3-yn-1-yl)-1H-tetrazole] | 81% | 
CC#C[C@@H](Cc1nnn[nH]1)c1ccc(OCc2ccc3scc(-c4ccc(OCC5(C)CS(=O)(=O)C5)cc4C)c3c2)cc1 [Cpd 12, (2S)-3-((4-(5-((4-(1-(1H-Tetrazol-5-yl)pent-3-yn-2-yl)phenoxy)methyl)benzo[b]thiophen-3-yl)-3-methylphenoxy)methyl)-3-methylthietane 1,1-dioxide] | 101% | 
CC#C[C@@H](Cc1nnn[nH]1)c1ccc(OCc2ccc3scc(-c4ccc(OCCCS(C)(=O)=O)cc4C)c3c2)cc1 [Cpd 16, (2S)-5-(2-(4-((3-(2-Methyl-4-(3-(methylsulfonyl)propoxy)phenyl)benzo[b]thiophen-5-yl)methoxy)phenyl)pent-3-yn-1-yl)-1H-tetrazole] | 105% | 
CC#C[C@@H](Cc1nnn[nH]1)c1ccc(OCc2ccc3sc(F)c(-c4ccc(OCCOC)cc4C)c3c2)cc1 [Cpd 44, (2S)-5-(2-(4-((2-Fluoro-3-(4-(2-methoxyethoxy)-2-methylphenyl)benzo[b]thiophen-5-yl)methoxy)phenyl)pent-3-yn-1-yl)-1H-tetrazole] | 91% | 
CC#C[C@@H](Cc1nnn[nH]1)c1ccc(OCc2ccc3sc(C(F)(F)F)c(-c4ccc(OCCOC)cc4C)c3c2)cc1 [Cpd 47, 5-((2S)-2-(4-((3-(4-(2-Methoxyethoxy)-2-methylphenyl)-2-(trifluoromethyl)benzo[b]thiophen-5-yl)methoxy)phenyl)pent-3-yn-1-yl)-1H-tetrazole] | 91% | 
CC#C[C@@H](Cc1nnn[nH]1)c1ccc(OCc2ccc3sccc3c2)cc1 [Cpd 60, (2S)-5-(2-(4-(Benzo[b]thiophen-5-ylmethoxy)phenyl)pent-3-yn-1-yl)-1H-tetrazole] |  | 110 nM
CC#C[C@@H](Cc1nnn[nH]1)c1ccc(OCc2cc(C)c3scc(CCCC)c3c2)cc1 [Cpd 64, (2S)-5-(2-(4-((3-Butyl-7-methylbenzo[b]thiophen-5-yl)methoxy)phenyl)pent-3-yn-1-yl)-1H-tetrazole] |  | 330 nM
CC#C[C@@H](Cc1nnn[nH]1)c1ccc(OCc2cc(C)c3scc(C4CCCC4)c3c2)cc1 [Cpd 65, (2S)-5-(2-(4-((3-Cyclopentyl-7-methylbenzo[b]thiophen-5-yl)methoxy)phenyl)pent-3-yn-1-yl)-1H-tetrazole] |  | 440 nM
CC#C[C@@H](Cc1nnn[nH]1)c1ccc(OCc2cc(C)c3scc(C4CCCCC4)c3c2)cc1 [Cpd 66, (2S)-5-(2-(4-((3-Cyclohexyl-7-methylbenzo[b]thiophen-5-yl)methoxy)phenyl)pent-3-yn-1-yl)-1H-tetrazole] |  | 1120 nM
